# pIC50: −log10 of the molar value. Entries after “also recorded” stand apart in the source; their conditions may differ.
# Key:
# HDAC1, 2, 3 = test system: T1, HDAC1, 2, 3; experiment: Fluorescence-based HDAC activity assay with fluorogenic peptide substrate (Reaction Biology); type: biochemical
# T1 construct: other: range over the three isoforms; other: 237-359 nM compared to 30000 nM
# Procedure: (§1) Fluorescence-based activity assays using fluorogenic peptides as substrates for HDAC1, 2, 3, 6, and 8 were performed by Reaction Biology Corporation (reactionbiology.com). […] The substrate for HDACs 1, 2, 3, and 6 was a fluorogenic peptide from p53 residues 379-382 (RHKK(Ac)AMC) (SEQ ID NO: 1). The substrate for HDAC8 was a fluorogenic peptide from p53 residues 379-382 (RHK(Ac)K(Ac)AMC) (SEQ ID NO: 2). SAHA-OH IC50 values were calculated using GraphPad Prism 4 program based on a sigmoidal dose-response equation. The blank (DMSO) value was entered as 1.00×10^−12 of concentration for curve fitting.
# HDAC6 = biological target: T2, HDAC6 (Homo sapiens, UniProt Q9UBN7); experiment: as above; type: biochemical
# T2 construct: purchased Reaction Biology Corporation
# T2 sequence (Q9UBN7 1-1215): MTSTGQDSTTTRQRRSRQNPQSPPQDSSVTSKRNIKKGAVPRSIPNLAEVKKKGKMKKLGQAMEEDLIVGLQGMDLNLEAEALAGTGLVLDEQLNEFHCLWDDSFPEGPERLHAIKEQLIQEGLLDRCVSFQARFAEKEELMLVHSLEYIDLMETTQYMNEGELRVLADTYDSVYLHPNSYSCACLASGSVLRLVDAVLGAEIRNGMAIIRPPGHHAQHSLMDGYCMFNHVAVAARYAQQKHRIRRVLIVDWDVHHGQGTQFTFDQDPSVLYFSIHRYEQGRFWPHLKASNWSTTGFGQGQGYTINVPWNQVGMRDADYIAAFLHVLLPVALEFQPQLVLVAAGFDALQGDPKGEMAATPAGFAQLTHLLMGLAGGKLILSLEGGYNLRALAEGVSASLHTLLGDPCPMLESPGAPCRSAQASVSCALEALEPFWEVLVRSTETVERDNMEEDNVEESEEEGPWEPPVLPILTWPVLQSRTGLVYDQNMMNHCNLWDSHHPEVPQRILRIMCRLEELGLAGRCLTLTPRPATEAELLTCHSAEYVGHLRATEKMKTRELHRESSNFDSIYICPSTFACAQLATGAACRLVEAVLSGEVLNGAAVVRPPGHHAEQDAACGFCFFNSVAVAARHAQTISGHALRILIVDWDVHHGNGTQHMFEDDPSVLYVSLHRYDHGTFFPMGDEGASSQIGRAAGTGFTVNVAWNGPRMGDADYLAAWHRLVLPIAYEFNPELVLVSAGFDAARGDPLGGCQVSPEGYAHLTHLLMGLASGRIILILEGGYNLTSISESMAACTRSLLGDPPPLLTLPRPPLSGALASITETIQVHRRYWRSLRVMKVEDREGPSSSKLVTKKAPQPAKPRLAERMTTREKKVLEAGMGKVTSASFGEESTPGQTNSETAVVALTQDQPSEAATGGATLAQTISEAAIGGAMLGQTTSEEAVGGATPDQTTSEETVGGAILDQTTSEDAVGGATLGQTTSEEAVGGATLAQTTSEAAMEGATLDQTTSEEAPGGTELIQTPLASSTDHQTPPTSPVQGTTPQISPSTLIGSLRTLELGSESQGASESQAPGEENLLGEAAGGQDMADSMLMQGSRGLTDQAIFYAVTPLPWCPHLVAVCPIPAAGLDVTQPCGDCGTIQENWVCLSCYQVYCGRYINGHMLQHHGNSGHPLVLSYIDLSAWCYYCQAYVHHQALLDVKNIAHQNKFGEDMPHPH
# Procedure: as §1
# BMMØs = experiment: Western blot analysis of acetyl-histone H3 and acetyl-α-tubulin; conditions: 10 μM, unstimulated BMMØs, 4 and 9 hours
# Procedure: Day 8 BMMØs were seeded at 1×10^6 cells/well in sterile 6-well plates incubated at 37° C. and 5% CO2 overnight to allow for cell adherence. […] Cells were lysed with Halt™ Protease Inhibitor Cocktail (Cat #78429) (Thermo Fisher, Waltham MA) in RIPA Buffer (Cat #R0278) (Sigma-Aldrich, St. Louis, MO) and scraped with a cell scraper (VWR, Radnor, PA). Lysates were sonicated with a ⅛^th needle tip using a Cole-Parmer 500-Watt Ultrasonic Homogenizer at 40% amplitude for 10 seconds on ice. Lysates were then centrifuged at 4° C. for 20 minutes at 12,000×g. The supernatant was collected and frozen at −80° C. until ready for western blot analysis. Protein lysates were produced using 50/50 sample to 2×SDS/PAGE sample buffer. Proteins were then separated by SDS/PAGE and immunoblotted using Histone H3 (D1H2) XP, Acetyl-Histone H3 (lys9/Lys14), α-Tubulin (11H10), Acetyl-α-Tubulin (Lys40) (D20G3) XP and β-Actin as primary antibodies. ECL was used for detection.
# Day 8 BMMØs were seeded at 1×10^6 cells/well in sterile 6-well plates incubated at 37° C. and 5% CO2 overnight to allow for cell adherence. […] Cells were lysed with Halt™ Protease Inhibitor Cocktail (Cat #78429) (Thermo Fisher, Waltham MA) in RIPA Buffer (Cat #R0278) (Sigma-Aldrich, St. Louis, MO) and scraped with a cell scraper (VWR, Radnor, PA). Lysates were sonicated with a ⅛th needle tip using a Cole-Parmer 500-Watt Ultrasonic Homogenizer at 40% amplitude for 10 seconds on ice. Lysates were then centrifuged at 4° C. for 20 minutes at 12,000×g. The supernatant was collected and frozen at −80° C. until ready for western blot analysis. Protein lysates were produced using 50/50 sample to 2×SDS/PAGE sample buffer. Proteins were then separated by SDS/PAGE and immunoblotted using Histone H3 (D1H2) XP, Acetyl-Histone H3 (Lys9/Lys14), α-Tubulin (11H10), Acetyl-α-Tubulin (Lys40) (D20G3) XP and β-Actin as primary antibodies. ECL was used for detection.
# [1] = test system: LPS-stimulated bone marrow macrophages (BMMØ); experiment: BMMØ cytokine secretion following LPS stimulation (ELISA, Luminex); type: cell-based, C57BL/6J mice
# Procedure: (§2) Three hours later, cells were stimulated with 100 ng/mL LPS. After 48 hours, cell culture supernatants were collected and analyzed by enzyme-linked immunosorbent assays (ELISA) (BioLegend, San Diego, CA) to measure murine IL-6 and TNFα. MAGPIX Luminex bead-based multiplex ELISA (Thermo Fisher Scientific, Waltham, MA) measured for 7 various cytokines and chemokines, and data were analyzed using the Luminex xPONENT software (Millipore) as per manufacturer's instructions. The 7-plex panel included murine IFNβ, IL-10, IL-6, IL-1β, MCP-1 (CCL2), TNFα, and GROα (CXCL1).
# as §2, with “After” for “Three hours later, cells were stimulated with 100 ng/mL LPS. After”, “(Milli-pore)” for “(Millipore)”, “TL-6,” for “IL-6,”
# [2] = test system: B cells (B220+) isolated from splenocytes; experiment: Splenocyte apoptosis and cell death by AV/PI flow cytometry, B cells; type: cell-based
# Procedure: Splenocytes were isolated from spleens as previously described. Briefly, 5-12-week C57BL/6J female mice were euthanized and the spleen was isolated. The spleen was processed into single-cell suspensions using a 40 μm cell strainer and flushed with cold PBS supplemented with 1% FBS and 0.4% 0.5 M EDTA (Quality Biological, Gaithersburg, MD). Erythrocytes were lysed with ACK lysis buffer (Quality Biological, Gaithersburg, MD). […] Subsequently, splenocytes were stimulated with 100 ng/mL LPS for 24 hours. Splenocytes were then washed with cold PBS supplemented with 1% FBS and 0.4% 0.5 M EDTA and FcR blocked, as previously mentioned. Splenocytes were then stained with purified anti-mouse PE/Cyanine7 CD45R/B220 antibody (#103222) (BioLegend, San Diego, CA) for the B cell population. SAHA and SAHA-OH apoptosis and cell death were then assessed using the FITC-AV Apoptosis Detection Kit with PI via flow cytometry, as previously mentioned. Flow cytometry data were collected using a Cytex Aurora flow cytometer. Flow plots and data processing was done using FCS Express 7 Flow Cytometry De Novo Software (De Novo, Glendale, CA).
# [3] = test system: T cells (CD3+) from splenocytes; experiment: Splenocyte apoptosis and cell death by AV/PI flow cytometry, T cells; type: cell-based; conditions: concentrations up to 30 μM
# [4] = 0-30 μM for 3 hours, then LPS 100 ng/mL 48 hours, ELISA
# [5] = 10 μM, 3 hours before 48-hour LPS
# [6] = 10 μM, 3 hours before 48-hour LPS, Luminex, relative to LPS control
structure (smiles),measurement,setting,value
"O=C(CCCCCCC(=O)Nc1ccc(CO)cc1)NO [SAHA-OH, N^1-hydroxy-N^8-(4-(hydroxymethyl)phenyl)octanediamide]","more selective for HDAC1, 2, 3 compared to Tubastatin A","HDAC1, 2, 3; 237-359 nM compared to 30000 nM",approximately 100 fold
same,pIC50,"HDAC1, 2, 3; range over the three isoforms, read-out: IC50 against HDAC1, 2, 3",6.44 to 6.63
same,less selective HDAC6 inhibition compared to Tubastatin A,HDAC6; 23 nM compared to […] nM,1.5 fold
same,pIC50,HDAC6; read-out: IC50 against HDAC6,7.64
same,acetylation of histone H3,BMMØs,slight decrease in histone H3 acetylation compared to SAHA; also recorded: reduced Ac—H3 activity compared to SAHA
same,acetylation of α-tubulin,BMMØs,similarly resulted in the acetylation; also recorded: similar
same,IL-6 cytokine secretion,[1]; [4],concentration-dependent reduction
same,TNFα cytokine secretion,[1]; [4],concentration-dependent reduction
same,IL-6 secretion,[1]; [5],less effective than SAHA; also recorded: only moderately suppressed
same,MCP-1 cytokine secretions,[1]; [5],non-significantly affected
same,IFNβ cytokine levels,[1]; [6],similarly suppressed cytokine levels compared to SAHA
same,IL-1β cytokine levels,[1]; [6],did not affect IL-1β (FIG. 8B) cytokine levels as effectively as 10 μM SAHA
same,TNFα cytokine levels,[1]; [6],similarly suppressed cytokine levels compared to SAHA
same,GROα (CXCL1) secretion,"[1]; 10 μM, Luminex, compared to LPS or SAHA-treated BMMØs",significant upregulation
same,toxicity profile for the B cell population,[2]; 0-30 μM,concentration-dependent toxicity profiles
same,decrease in cell death of the B cell population versus SAHA,[2]; 10 μM,3 fold
same,enhancement in viability of the B cell population versus SAHA,[2]; 10 μM,5 fold
same,toxicity for the T cell population,[3],minimal toxicity
